Results published in the supplement of paper PMC10307832.

Legend:
Assay in all cases: relative viability (nuclei count vs DMSO), 5 days (fraction); higher = more cells survive
[1] = compound: COC1=CC=C(C=C1)COC2=C(C=C(C=C2)CC3=CN=C(N=C3N)N)OC [GW-2580] + C[C@@H](Oc1cc(-c2cnn(C3CCNCC3)c2)cnc1N)c1c(Cl)ccc(F)c1Cl [Crizotinib] (partner 1 µM)
Procedure, shortened: (§1)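 Lung cancer cell lines were pin-tool dosed in 1536-well plates on the day after seeding, with either a lone drug or a fixed anchor-drug dose plus five library-drug doses (not always all listed) in √10 steps. Nuclei were counted on 4× images after 5 days. Relative viability is the ratio of treated-well to vehicle-well nuclei counts, with each value a median of duplicate plates.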

[2] = compound: COC1=CC=C(C=C1)COC2=C(C=C(C=C2)CC3=CN=C(N=C3N)N)OC [GW-2580] + C[C@]1(O)C[C@@H](c2nc(-c3ccc4ccc(-c5ccccc5)nc4c3)c3c(N)nccn32)C1 [Linsitinib] (partner 1 µM)
Procedure, shortened: as §1

[3] = compound: COC1=CC=C(C=C1)COC2=C(C=C(C=C2)CC3=CN=C(N=C3N)N)OC [GW-2580] + CS(=O)(=O)N1CCN(Cc2cc3nc(-c4cccc5[nH]ncc45)nc(N4CCOCC4)c3s2)CC1 [Pictilisib] (partner 1 µM)
Procedure, shortened: as §1

[4] = compound: COC1=CC=C(C=C1)COC2=C(C=C(C=C2)CC3=CN=C(N=C3N)N)OC [GW-2580] + Cc1cc(Nc2cc(N3CCN(C)CC3)nc(Sc3ccc(NC(=O)C4CC4)cc3)n2)n[nH]1 [Tozasertib] (partner 0.1 µM)
Procedure, shortened: as §1

[5] = compound: COC1=CC=C(C=C1)COC2=C(C=C(C=C2)CC3=CN=C(N=C3N)N)OC [GW-2580] + COc1cccc2cc(-c3nc([C@H]4CC[C@H](C(=O)O)CC4)n4ncnc(N)c34)[nH]c12 [OSI-027] (partner 0.5 µM)
Procedure, shortened: as §1

NCI-H727
relative viability ([1]; first compound 0.08 µM): 0.85
relative viability ([1]; first compound 0.8 µM): 0.819
relative viability ([1]; first compound 2.53 µM): 0.79
relative viability ([1]; first compound 8 µM): 0.5
relative viability ([2]; first compound 0.08 µM): 0.241
relative viability ([2]; first compound 0.8 µM): 0.298
relative viability ([2]; first compound 2.53 µM): 0.226
relative viability ([2]; first compound 8 µM): 0.284
relative viability ([3]; first compound 0.08 µM): 0.355
relative viability ([3]; first compound 0.8 µM): 0.622
relative viability ([3]; first compound 2.53 µM): 0.349
relative viability ([3]; first compound 8 µM): 0.372
relative viability ([4]; first compound 0.08 µM): 0.67
relative viability ([4]; first compound 0.8 µM): 0.621
relative viability ([4]; first compound 2.53 µM): 0.515
relative viability ([4]; first compound 8 µM): 0.551
relative viability ([5]; first compound 0.08 µM): 0.595
relative viability ([5]; first compound 0.8 µM): 0.761
relative viability ([5]; first compound 2.53 µM): 0.629
relative viability ([5]; first compound 8 µM): 0.575

NCI-H838
relative viability ([1]; first compound 0.08 µM): 0.946
relative viability ([1]; first compound 0.8 µM): 0.904
relative viability ([1]; first compound 2.53 µM): 0.779
relative viability ([1]; first compound 8 µM): 0.8
relative viability ([2]; first compound 0.08 µM): 1.14
relative viability ([2]; first compound 0.8 µM): 1.19
relative viability ([2]; first compound 2.53 µM): 1.01
relative viability ([2]; first compound 8 µM): 1.06
relative viability ([3]; first compound 0.08 µM): 0.569
relative viability ([3]; first compound 0.8 µM): 0.462
relative viability ([3]; first compound 2.53 µM): 0.326
relative viability ([3]; first compound 8 µM): 0.614
relative viability ([4]; first compound 0.08 µM): 0.291
relative viability ([4]; first compound 0.8 µM): 0.341
relative viability ([4]; first compound 2.53 µM): 0.295
relative viability ([4]; first compound 8 µM): 0.248
relative viability ([5]; first compound 0.08 µM): 0.413
relative viability ([5]; first compound 0.8 µM): 0.428
relative viability ([5]; first compound 2.53 µM): 0.472
relative viability ([5]; first compound 8 µM): 0.431

NCI-H1355
relative viability ([1]; first compound 0.08 µM): 1.24
relative viability ([1]; first compound 0.8 µM): 1.12
relative viability ([1]; first compound 2.53 µM): 0.946
relative viability ([1]; first compound 8 µM): 1.01
relative viability ([2]; first compound 0.08 µM): 0.823
relative viability ([2]; first compound 0.8 µM): 0.884
relative viability ([2]; first compound 2.53 µM): 0.694
relative viability ([2]; first compound 8 µM): 0.809
relative viability ([3]; first compound 0.08 µM): 0.476
relative viability ([3]; first compound 0.8 µM): 0.43
relative viability ([3]; first compound 2.53 µM): 0.274
relative viability ([3]; first compound 8 µM): 0.421
relative viability ([4]; first compound 0.08 µM): 0.532
relative viability ([4]; first compound 0.8 µM): 0.494
relative viability ([4]; first compound 2.53 µM): 0.396
relative viability ([4]; first compound 8 µM): 0.477
relative viability ([5]; first compound 0.08 µM): 0.378
relative viability ([5]; first compound 0.8 µM): 0.466
relative viability ([5]; first compound 2.53 µM): 0.37
relative viability ([5]; first compound 8 µM): 0.35

NCI-H1437
relative viability ([1]; first compound 0.08 µM): 1.01
relative viability ([1]; first compound 0.8 µM): 1.01
relative viability ([1]; first compound 2.53 µM): 0.828
relative viability ([1]; first compound 8 µM): 0.77
relative viability ([2]; first compound 0.08 µM): 1.08
relative viability ([2]; first compound 0.8 µM): 1.3
relative viability ([2]; first compound 2.53 µM): 0.942
relative viability ([2]; first compound 8 µM): 0.728
relative viability ([3]; first compound 0.08 µM): 0.465
relative viability ([3]; first compound 0.8 µM): 0.514
relative viability ([3]; first compound 2.53 µM): 0.378
relative viability ([3]; first compound 8 µM): 0.387
relative viability ([4]; first compound 0.08 µM): 0.412
relative viability ([4]; first compound 0.8 µM): 0.433
relative viability ([4]; first compound 2.53 µM): 0.405
relative viability ([4]; first compound 8 µM): 0.291
relative viability ([5]; first compound 0.08 µM): 0.943
relative viability ([5]; first compound 0.8 µM): 0.864
relative viability ([5]; first compound 2.53 µM): 0.889
relative viability ([5]; first compound 8 µM): 0.85

NCI-H1651
relative viability ([1]; first compound 0.08 µM): 0.917
relative viability ([1]; first compound 0.8 µM): 0.952
relative viability ([1]; first compound 2.53 µM): 0.813
relative viability ([1]; first compound 8 µM): 0.874
relative viability ([2]; first compound 0.08 µM): 1.06
relative viability ([2]; first compound 0.8 µM): 1.04
relative viability ([2]; first compound 2.53 µM): 1
relative viability ([2]; first compound 8 µM): 0.982
relative viability ([3]; first compound 0.08 µM): 0.65
relative viability ([3]; first compound 0.8 µM): 0.707
relative viability ([3]; first compound 2.53 µM): 0.597
relative viability ([3]; first compound 8 µM): 0.599
relative viability ([4]; first compound 0.08 µM): 0.763
relative viability ([4]; first compound 0.8 µM): 0.745
relative viability ([4]; first compound 2.53 µM): 0.702
relative viability ([4]; first compound 8 µM): 0.569
relative viability ([5]; first compound 0.08 µM): 0.804
relative viability ([5]; first compound 0.8 µM): 0.753
relative viability ([5]; first compound 2.53 µM): 0.748
relative viability ([5]; first compound 8 µM): 0.896

NCI-H1666
relative viability ([1]; first compound 0.08 µM): 1.01
relative viability ([1]; first compound 0.8 µM): 0.984
relative viability ([1]; first compound 2.53 µM): 1.17
relative viability ([1]; first compound 8 µM): 0.926
relative viability ([2]; first compound 0.08 µM): 0.765
relative viability ([2]; first compound 0.8 µM): 1.02
relative viability ([2]; first compound 2.53 µM): 0.742
relative viability ([2]; first compound 8 µM): 0.724
relative viability ([3]; first compound 0.08 µM): 0.55
relative viability ([3]; first compound 0.8 µM): 0.653
relative viability ([3]; first compound 2.53 µM): 0.316
relative viability ([3]; first compound 8 µM): 0.573
relative viability ([4]; first compound 0.08 µM): 0.675
relative viability ([4]; first compound 0.8 µM): 0.661
relative viability ([4]; first compound 2.53 µM): 0.581
relative viability ([4]; first compound 8 µM): 0.592
relative viability ([5]; first compound 0.08 µM): 0.941
relative viability ([5]; first compound 0.8 µM): 1.12
relative viability ([5]; first compound 2.53 µM): 0.911
relative viability ([5]; first compound 8 µM): 0.77

NCI-H1734
relative viability ([1]; first compound 0.08 µM): 0.66
relative viability ([1]; first compound 0.8 µM): 0.74
relative viability ([1]; first compound 2.53 µM): 0.656
relative viability ([1]; first compound 8 µM): 0.509
relative viability ([2]; first compound 0.08 µM): 0.899
relative viability ([2]; first compound 0.8 µM): 0.839
relative viability ([2]; first compound 2.53 µM): 0.895
relative viability ([2]; first compound 8 µM): 0.911
relative viability ([3]; first compound 0.08 µM): 0.491
relative viability ([3]; first compound 0.8 µM): 0.478
relative viability ([3]; first compound 2.53 µM): 0.431
relative viability ([3]; first compound 8 µM): 0.436
relative viability ([4]; first compound 0.08 µM): 0.25
relative viability ([4]; first compound 0.8 µM): 0.267
relative viability ([4]; first compound 2.53 µM): 0.277
relative viability ([4]; first compound 8 µM): 0.252
relative viability ([5]; first compound 0.08 µM): 0.617
relative viability ([5]; first compound 0.8 µM): 0.65
relative viability ([5]; first compound 2.53 µM): 0.582
relative viability ([5]; first compound 8 µM): 0.537

NCI-H1755
relative viability ([1]; first compound 0.08 µM): 0.852
relative viability ([1]; first compound 0.8 µM): 1.03
relative viability ([1]; first compound 2.53 µM): 0.818
relative viability ([1]; first compound 8 µM): 0.71
relative viability ([2]; first compound 0.08 µM): 1.05
relative viability ([2]; first compound 0.8 µM): 1.17
relative viability ([2]; first compound 2.53 µM): 0.955
relative viability ([2]; first compound 8 µM): 0.761
relative viability ([3]; first compound 0.08 µM): 0.489
relative viability ([3]; first compound 0.8 µM): 0.461
relative viability ([3]; first compound 2.53 µM): 0.321
relative viability ([3]; first compound 8 µM): 0.372
relative viability ([4]; first compound 0.08 µM): 0.545
relative viability ([4]; first compound 0.8 µM): 0.576
relative viability ([4]; first compound 2.53 µM): 0.523
relative viability ([4]; first compound 8 µM): 0.538
relative viability ([5]; first compound 0.08 µM): 0.757
relative viability ([5]; first compound 0.8 µM): 0.676
relative viability ([5]; first compound 2.53 µM): 0.686
relative viability ([5]; first compound 8 µM): 0.703
